From patent US5510331A, “Antihypertensive peptides” (Roussel UCLAF, priority 1990, dated 1996)
Where a SMILES comes first, the peptide text is derived from it. Bridges are numbered along the chain shown (N, C = ends). [ ]: non-standard residue; d: D form. d2Nal = N[C@H](Cc1ccc2ccccc2c1)C(=O)O; Nle = CCCC[C@H](N)C(=O)O

Target: endotheline receptor
Assay: Activity on the endotheline receptor: displacement of 125I endotheline from rat brain membrane preparation
Format: binding
Details: membrane preparation from rat posterior cortex and brain, 25° C., 60 minutes, 7 concentrations, read-out: IC50 (50% inhibiting concentration; concentration necessary to displace 50% of the specific radioactivity fixed on the receptor)
Procedure: A membrane preparation was made from rat posterior cortex and brain and the tissue was ground with a POLYTRON in a 50 mM Tris buffer pH=7.4. After 30 minutes at 25° C. (W.B.), the homogenate was centrifuged at 30,000 g for 15 minutes (2 centrifugations with intermediate taking up in the Tris buffer pH 7.4). The deposits were suspended in an incubation buffer (Tris 25 mM, pepstatine A 5 microg/ml, aprotinine 3 microg/ml, PMSF 0.1 mM, EDTA 3 mM, EGTA 1 mM pH 7.4). 2 ml aliquots were distributed in hemolysis tubes and ^125 I endotheline (approximately 50,000 dpm/tube) and the product to be studied were added. The product was first tested at 3×10^-5 M in triplicate. When the product tested displaced more than 50% of radioactivity linked specifically to the receptor, it was tested again in a range of 7 concentrations to determine the concentration which inhibited the radioactivity linked specifically to the receptor by 50%. In this way, the 50% inhibiting concentration was determined.
The non-specific bond was determined by the addition of endotheline at 10^-6 M (in triplicate) and the deposits were incubated at 25° C. for 60 minutes, put in a water-bath at 0° C. for 5 minutes, filtered under reduced pressure and rinsed with a Tris buffer 7.4 pH. The radioactivity was counted in the presence of scintillating Triton. The result was expressed directly as a 50% inhibiting concentration (IC50), or the concentration of product studied expressed in nM necessary to displace 50% of the specific radioactivity fixed on the receptor studied.

CC[C@H](C)[C@H](NC(=O)[C@H](CC(=O)O)NC(=O)[C@H](CC(C)C)NC(=O)[C@H](Cc1c[nH]cn1)NC(=O)[C@@H]1CSSC[C@H](N)C(=O)N[C@@H]([C@@H](C)O)C(=O)N[C@H]2CSSC[C@H](NC(=O)[C@H](CCC(=O)O)NC(=O)[C@H](CCCCN)NC(=O)[C@H](CC(=O)O)NC(=O)[C@H]([C@@H](C)O)NC(=O)[C@H](CCSC)NC(=O)[C@H](CC(=O)O)NC(=O)[C@H](CCCCN)NC2=O)C(=O)N[C@@H](C(C)C)C(=O)N[C@@H](Cc2ccc(O)cc2)C(=O)N[C@@H](Cc2ccccc2)C(=O)N1)C(=O)N[C@H](C(=O)N[C@@H](Cc1c[nH]c2ccccc12)C(=O)O)[C@@H](C)CC [Example 11] (H-CTCKDMTDKECVYFCHLDIIW-OH; disulfide 1-15, 3-11)
IC50: 1.3 nM

CCCC[C@@H]1NC(=O)[C@H](CC(C)C)NC(=O)[C@H](CO)NC(=O)[C@H](CO)NC(=O)[C@@H]2CSSC[C@H](NC(=O)[C@H](CCC(=O)O)NC(=O)[C@H](CCCCN)NC(=O)[C@H](CC(=O)O)NC1=O)C(=O)N[C@@H](C(C)C)C(=O)N[C@@H](Cc1ccc(O)cc1)C(=O)N[C@@H](Cc1ccccc1)C(=O)N[C@H](C(=O)N[C@@H](Cc1c[nH]cn1)C(=O)N[C@@H](CCC(N)=O)C(=O)N[C@@H](CC(=O)O)C(=O)N[C@H](C(=O)N[C@H](C(=O)N[C@@H](Cc1c[nH]c3ccccc13)C(=O)O)[C@@H](C)CC)[C@@H](C)CC)CSSC[C@H](N)C(=O)N[C@@H](CO)C(=O)N2 [Example 12] (H-CSCSSL[Nle]DKECVYFCHQDIIW-OH; disulfide 1-15, 3-11)
IC50: 2.3 nM

CC[C@H](C)[C@H](NC(=O)[C@H](CC(=O)O)NC(=O)[C@H](CCCNC(=N)N)NC(=O)[C@H](Cc1c[nH]cn1)NC(=O)[C@@H]1CSSC[C@H](N)C(=O)N[C@@H]([C@@H](C)O)C(=O)N[C@H]2CSSC[C@H](NC(=O)[C@H](CCC(=O)O)NC(=O)[C@H](CCCCN)NC(=O)[C@H](CC(=O)O)NC(=O)[C@H]([C@@H](C)O)NC(=O)[C@H](CCSC)NC(=O)[C@H](CC(=O)O)NC(=O)[C@H](CCCCN)NC2=O)C(=O)N[C@@H](CC(C)C)C(=O)N[C@@H](Cc2ccc(O)cc2)C(=O)N[C@@H](Cc2ccccc2)C(=O)N1)C(=O)N[C@H](C(=O)N[C@@H](Cc1c[nH]c2ccccc12)C(=O)O)[C@@H](C)CC [Example 15] (H-CTCKDMTDKECLYFCHRDIIW-OH; disulfide 1-15, 3-11 (inferred); N-terminus assumed)
IC50: 1.8 nM

CCCC[C@@H]1NC(=O)[C@H](CC(C)C)NC(=O)[C@H](CO)NC(=O)[C@H](CO)NC(=O)[C@@H](N)CSSC[C@@H](C(=O)N[C@@H](Cc2c[nH]cn2)C(=O)N[C@@H](CC(C)C)C(=O)N[C@@H](CC(=O)O)C(=O)N[C@H](C(=O)N[C@H](C(=O)N[C@@H](Cc2c[nH]c3ccccc23)C(=O)O)[C@@H](C)CC)[C@@H](C)CC)NC(=O)[C@H](CCC(=O)O)NC(=O)[C@H](CCCCN)NC(=O)[C@H](CC(=O)O)NC1=O [Example 7] (H-CSSL[Nle]DKECHLDIIW-OH; disulfide 1-9)
IC50: 3520 nM

CC[C@H](C)[C@H](NC(=O)[C@H](CC(=O)O)NC(=O)[C@H](CCC(N)=O)NC(=O)[C@H](Cc1c[nH]cn1)NC(=O)[C@@H]1CSSC[C@H](N)C(=O)N[C@@H](CO)C(=O)N[C@H]2CSSC[C@H](NC(=O)[C@H](CCC(=O)O)NC(=O)[C@H](CCCCN)NC(=O)[C@H](CC(=O)O)NC(=O)[C@H](CCSC)NC(=O)[C@H](CC(C)C)NC(=O)[C@H](CO)NC(=O)[C@H](CO)NC2=O)C(=O)N[C@@H](CC(C)C)C(=O)N[C@@H](Cc2ccc(O)cc2)C(=O)N[C@@H](Cc2ccccc2)C(=O)N1)C(=O)N[C@H](C(=O)N[C@@H](Cc1c[nH]c2ccccc12)C(=O)O)[C@@H](C)CC [Example 13] (H-CSCSSLMDKECLYFCHQDIIW-OH; disulfide 1-15, 3-11)
IC50: 3.5 nM

CCCC[C@@H]1NC(=O)[C@H](CC(C)C)NC(=O)[C@H](CO)NC(=O)[C@H](CO)NC(=O)[C@@H]2CSSC[C@H](NC(=O)[C@H](CCC(=O)O)NC(=O)[C@H](CCCCN)NC(=O)[C@H](CC(=O)O)NC1=O)C(=O)N[C@@H](C(C)C)C(=O)N[C@@H](Cc1ccc(O)cc1)C(=O)N[C@@H](Cc1ccccc1)C(=O)N[C@H](C(=O)N[C@@H](Cc1c[nH]cn1)C(=O)N[C@@H](CC(C)C)C(=O)N[C@@H](CC(=O)O)C(=O)N[C@H](C(=O)N[C@H](C(=O)N[C@H](Cc1ccc3ccccc3c1)C(=O)O)[C@@H](C)CC)[C@@H](C)CC)CSSC[C@H](N)C(=O)N[C@@H](CO)C(=O)N2 [Example 3, (Nle-7)-DiNaphtylalanine-21-ET1 derivative] (H-CSCSSL[Nle]DKECVYFCHLDII[d2Nal]-OH; disulfide 1-15, 3-11)
IC50: 2 nM

CC[C@H](C)[C@H](NC(=O)[C@H](CC(=O)O)NC(=O)[C@H](CC(C)C)NC(=O)[C@H](Cc1c[nH]cn1)NC(=O)[C@@H]1CSSC[C@H](N)C(=O)N[C@@H](CO)C(=O)N[C@H]2CSSC[C@H](NC(=O)[C@H](CCC(=O)O)NC(=O)[C@H](CCCCN)NC(=O)[C@H](CC(=O)O)NC(=O)CNC(=O)[C@H](CC(C)C)NC(=O)[C@H](CO)NC(=O)[C@H](CO)NC2=O)C(=O)N[C@@H](C(C)C)C(=O)N[C@@H](Cc2ccc(O)cc2)C(=O)N[C@@H](Cc2ccccc2)C(=O)N1)C(=O)N[C@H](C(=O)N[C@@H](Cc1c[nH]c2ccccc12)C(=O)O)[C@@H](C)CC [Example 2, (Gly-7)--ET1 derivative] (H-CSCSSLGDKECVYFCHLDIIW-OH; disulfide 1-15, 3-11)
IC50: 1.4 nM

CC[C@H](C)[C@H](NC(=O)[C@H](CC(=O)O)NC(=O)[C@H](CC(C)C)NC(=O)[C@H](Cc1c[nH]cn1)NC(=O)[C@H](CS)NC(=O)[C@H](Cc1ccc(O)cc1)NC(=O)CNC(=O)[C@H](CC(N)=O)NC(=O)[C@@H]1CCCN1C(=O)CNC(=O)[C@H](C)NC(=O)[C@H](CC(C)C)NC(=O)[C@@H](N)CS)C(=O)N[C@H](C(=O)N[C@@H](Cc1c[nH]c2ccccc12)C(=O)O)[C@@H](C)CC [Example 10] (H-CLAGPNGYCHLDIIW-OH)
IC50: 620 nM

CC[C@H](C)[C@H](NC(=O)[C@H](CC(=O)O)NC(=O)[C@H](CC(C)C)NC(=O)[C@H](Cc1c[nH]cn1)NC(=O)[C@@H]1CSSC[C@H](N)C(=O)N[C@@H](CC(C)C)C(=O)N[C@@H](C)C(=O)NCC(=O)N2CCC[C@H]2C(=O)N[C@@H](CC(N)=O)C(=O)NCC(=O)N[C@@H](Cc2ccc(O)cc2)C(=O)N1)C(=O)N[C@H](C(=O)N[C@@H](Cc1c[nH]c2ccccc12)C(=O)O)[C@@H](C)CC [Example 9] (H-CLAGPNGYCHLDIIW-OH; disulfide 1-9)
IC50: 7500 nM

CCCC[C@H](NC(=O)[C@H](CC(C)C)NC(=O)[C@H](CO)NC(=O)[C@H](CO)NC(=O)[C@@H](N)CS)C(=O)N[C@@H](CC(=O)O)C(=O)N[C@@H](CCCCN)C(=O)N[C@@H](CCC(=O)O)C(=O)N[C@@H](CS)C(=O)N[C@@H](Cc1c[nH]cn1)C(=O)N[C@@H](CC(C)C)C(=O)N[C@@H](CC(=O)O)C(=O)N[C@H](C(=O)N[C@H](C(=O)N[C@@H](Cc1c[nH]c2ccccc12)C(=O)O)[C@@H](C)CC)[C@@H](C)CC [Example 8] (H-CSSL[Nle]DKECHLDIIW-OH)
IC50: 5350 nM
